Experimental data published in patent USRE47689E1, “Compounds for treating spinal muscular atrophy” (PTC Therapeutics, Inc., priority 2011, dated 2019).
Read-outs that look alike come from different tables or passages of the source.

What was measured:
Smn protein = Smn protein assay in cultured cells (SMN HTRF); format: cell-based, human; conditions: for EC1.5x (concentration giving 1.5-fold Smn protein increase): read-out: EC1.5x for Smn protein expression
Method in brief: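 Smn in SMA fibroblast lysates, measured by anti-SMN HTRF after 48 h compound exposure; EC1.5x from fold change over vehicle.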

[1] = test system: SMN2 minigene (full length SMN2 minigene mRNA containing SMN2 exon 7); test: SMN2 minigene mRNA splicing RT-qPCR assay in cultured cells; format: cell-based, human; conditions: Homo sapiens, HEK293-H, read-out: EC1.5x for production of full length SMN2 mRNA
Method in brief: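 Full-length SMN2 minigene mRNA (exon 7 included), minigene-specific and not endogenous SMN, quantified by RT-qPCR multiplexed with GAPDH in stably transfected HEK293H cells after 24 h compound exposure at 37° C. Abundance from efficiency-corrected Ct, normalized to GAPDH and vehicle; EC1.5x reported as star bins.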

[2] = SMA patient fibroblast cells, 48 hours, 7-point concentration data, fold increase relative to vehicle control (SMN HTRF)
[3] = HEK293H cells stably transfected with SMN2-A minigene, 24 hours, 7-point concentration curve, 1.5-fold relative to vehicle-treated cells
[4] = SMA Type 1 patient fibroblast cells (GM03813), 48 hours, 7-point concentration curve, SMN HTRF, concentration producing 1.5 times Smn protein vs DMSO vehicle control

| SMILES | maximum fold (Fold) increase of Smn protein (Smn protein; [2]) | EC (1.5-fold) [1, 3] | melting point | EC1.5x (concentration giving 1.5-fold Smn protein increase) (Smn protein; [4]) | EC (1.5-fold) ([1]; 24 h) | maximum fold (Fold) increase of Smn protein (Smn protein) | EC1.5x (concentration giving 1.5-fold Smn protein increase) (Smn protein) |
| --- | --- | --- | --- | --- | --- | --- | --- |
| Cc1cn2cc(-c3cc4ccc(N5CCN[C@@H](C)C5)cc4oc3=O)nc2s1 [Compound 232, 3-(2-methylimidazo[2,1-b][1,3]thiazol-6-yl)-7-[(3S)-3-methylpiperazin-1-yl]-2H-chromen-2-one] | * (maximum fold increase of ≤1.2) | 0.3 to 1 µM | 177 to 182 °C |  |  |  |  |
| Cc1cn2cc(-c3cc4ccc(N5CC(N6CCCCC6)C5)cc4oc3=O)nc2c(C)n1 [Compound 951, 3-(6,8-dimethylimidazo[1,2-a]pyrazin-2-yl)-7-[3-(piperidin-1-yl)azetidin-1-yl]-2H-chromen-2-one] | **** (fold increase between >1.5 and ≤1.65) | < 0.1 µM | 284 to 286 °C | 1000 to 3000 nM |  |  |  |
| O=c1oc2cc(N3CCN4CCC[C@H]4C3)ccc2cc1-c1cn2cccc(F)c2n1 [Compound 528, 3-(8-fluoroimidazo[1,2-a]pyridin-2-yl)-7-[(8aS)-hexahydropyrrolo[1,2-a]pyrazin-2(1H)-yl]-2H-chromen-2-one] | ** (fold increase between >1.2 and ≤1.35) | 1 to 3 µM | 235 to 238 °C |  |  |  |  |
| CN1CCN(c2ccc3cc(-c4cn5cccc(Br)c5n4)c(=O)oc3c2)CC1 [Compound 245, 3-(8-bromoimidazo[1,2-a]pyridin-2-yl)-7-(4-methylpiperazin-1-yl)-2H-chromen-2-one] | ** (fold increase between >1.2 and ≤1.35) | 0.1 to 0.3 µM | 217 to 220 °C |  |  |  |  |
| Cc1cn2cc(-c3cc4ccc(N5CCC(N(C)C)CC5)cc4oc3=O)cc2c(C)n1 [Compound 715, 7-[4-(dimethylamino)piperidin-1-yl]-3-(1,3-dimethylpyrrolo[1,2-a]pyrazin-7-yl)-2H-chromen-2-one] | ** (fold increase between >1.2 and ≤1.35) | < 0.1 µM | 192 to 195 °C |  |  |  |  |
| O=c1oc2cc(N3CCNCC3)ccc2cc1-c1cccs1 [Compound 363, 7-(piperazin-1-yl)-3-(thiophen-2-yl)-2H-chromen-2-one] | ** (fold increase between >1.2 and ≤1.35) |  | 193 to 195 °C |  | 1 to 3 µM |  |  |
| Cc1cn2cc(-c3cc4ccc(CN5CCCCC5)cc4oc3=O)nc2c(C)n1 [Compound 847, 3-(6,8-dimethylimidazo[1,2-a]pyrazin-2-yl)-7-(piperidin-1-ylmethyl)-2H-chromen-2-one] | ** (fold increase between >1.2 and ≤1.35) | 1 to 3 µM | 191 to 193 °C |  |  |  |  |
| O=c1oc2cc(N3CCNCC3)ccc2cc1-c1ccncc1F [Compound 126, 3-(3-fluoropyridin-4-yl)-7-(piperazin-1-yl)-2H-chromen-2-one] | * (maximum fold increase of ≤1.2) |  | 202 to 204 °C |  | 3 to 30 µM |  |  |
| Cc1cc2cc(-c3cc4ccc(N5CCN(C(C)C)CC5)cc4oc3=O)oc2c(C)n1 [Compound 789, 3-(5,7-dimethylfuro[2,3-c]pyridin-2-yl)-7-[4-(propan-2-yl)piperazin-1-yl]-2H-chromen-2-one] | *** (fold increase between >1.35 and ≤1.5) | < 0.1 µM | 186 to 189 °C |  |  |  |  |
| C[C@@H]1CN(c2ccc3cc(-c4cn5ccc(Cl)cc5n4)c(=O)oc3c2)C[C@H](C)N1 [Compound 123, 3-(7-chloroimidazo[1,2-a]pyridin-2-yl)-7-[(3R,5S)-3,5-dimethylpiperazin-1-yl]-2H-chromen-2-one] | *** (fold increase between >1.35 and ≤1.5) | 1 to 3 µM | 223 to 231 °C | 300 to 1000 nM |  |  |  |
| O=c1oc2cc(N3CC4CCC3CN4)ccc2cc1-c1cn2cccc(Cl)c2n1 (stereo not shown) [Compound 527, 3-(8-chloroimidazo[1,2-a]pyridin-2-yl)-7-(2,5-diazabicyclo[2.2.2]oct-2-yl)-2H-chromen-2-one] | **** (fold increase between >1.5 and ≤1.65) | 0.1 to 0.3 µM | 178 to 182 °C | < 300 nM |  |  |  |
| Cl.O=c1oc2cc(N3CCNCC3)ccc2cc1-c1nc2cccc(Cl)c2s1 [Compound 6, 3-(7-chloro-1,3-benzothiazol-2-yl)-7-(piperazin-1-yl)-2H-chromen-2-one hydrochloride] | * (maximum fold increase of ≤1.2) | 1 to 3 µM | 320 °C (dec.) |  |  |  |  |
| O=c1oc2cc(N3CCNCC3)ccc2cc1-c1cc2ccccn2c1 [Cpd 529, 3-(indolizin-2-yl)-7-(piperazin-1-yl)-2H-chromen-2-one] | * (maximum fold increase of ≤1.2) | 1 to 3 µM | 186 to 188 °C |  |  |  |  |
| Cc1cn2cc(-c3cc4ccc(N5C[C@H]6CN(CCO)C[C@H]6C5)cc4oc3=O)nc2c(C)n1 [Compound 741, 3-(6,8-dimethylimidazo[1,2-a]pyrazin-2-yl)-7-[(3aR,6aS)-5-(2-hydroxyethyl)hexahydropyrrolo[3,4-c]pyrrol-2(1H)-yl]-2H-chromen-2-one] | ***** (fold increase >1.65) | < 0.1 µM | 258 to 268 °C | < 300 nM |  |  |  |
| Cc1ccn2cc(-c3cc4ccc(N5CCNCC5)cc4oc3=O)nc2n1 [Compound 223, 3-(7-methylimidazo[1,2-a]pyrimidin-2-yl)-7-(piperazin-1-yl)-2H-chromen-2-one] | * (maximum fold increase of ≤1.2) | 0.3 to 1 µM | 295 to 298 °C |  |  |  |  |
| Cc1cn2cc(-c3cc4ccc(N(C)C5CCN(C)C5)cc4oc3=O)nc2c(C)n1 (stereo not shown) [Compound 615, 3-(6,8-dimethylimidazo[1,2-a]pyrazin-2-yl)-7-[methyl(1-methylpyrrolidin-3-yl)amino]-2H-chromen-2-one] | **** (fold increase between >1.5 and ≤1.65) | < 0.1 µM | 182 to 184 °C | < 300 nM |  |  |  |
| Cc1csc(-c2cc3ccc(N4CCN[C@H](C)C4)cc3oc2=O)n1 [Compound 300, 7-[(3R)-3-methylpiperazin-1-yl]-3-(4-methyl-1,3-thiazol-2-yl)-2H-chromen-2-one] | * (maximum fold increase of ≤1.2) |  | 176 °C |  | 1 to 3 µM |  |  |
| Cc1cccn2cc(-c3cc4ccc(N5CCN6CCC5CC6)cc4oc3=O)nc12 [Compound 505, 7-(1,4-diazabicyclo[3.2.2]non-4-yl)-3-(8-methylimidazo[1,2-a]pyridin-2-yl)-2H-chromen-2-one] | * (maximum fold increase of ≤1.2) |  | 278 °C (dec.) |  | 3 to 30 µM |  |  |
| O=c1oc2cc(N3CCN4CCC3CC4)ccc2cc1-c1cn2ccsc2n1 [Compound 438, 7-(1,4-diazabicyclo[3.2.2]non-4-yl)-3-(imidazo[2,1-b][1,3]thiazol-6-yl)-2H-chromen-2-one] |  |  | > 300 °C |  | 0.1 to 0.3 µM | *** (key: *: maximum fold increase of ≤1.2; **: fold increase between >1.2 and ≤1.35; ***: fold increase between >1.35 and ≤1.5; ****: fold increase between >1.5 and ≤1.65; *****: fold increase >1.65) | 1000 to 3000 nM |
| Cc1nn2cc(-c3cc4ccc(N5CCCN(C)CC5)cc4oc3=O)nc2s1 [Compound 451, 7-(4-methyl-1,4-diazepan-1-yl)-3-(2-methylimidazo[2,1-b][1,3,4]thiadiazol-6-yl)-2H-chromen-2-one] | *** (fold increase between >1.35 and ≤1.5) | 1 to 3 µM | 191 to 195 °C |  |  |  |  |
| Cc1cc(F)cn2cc(-c3cc4ccc(N5CCCN(C)CC5)cc4oc3=O)nc12 [Compound 330, 3-(6-fluoro-8-methylimidazo[1,2-a]pyridin-2-yl)-7-(4-methyl-1,4-diazepan-1-yl)-2H-chromen-2-one] | * (maximum fold increase of ≤1.2) | 0.3 to 1 µM | 191 to 198 °C |  |  |  |  |
| Cc1cn2cc(-c3cc4ccc(N5C[C@H]6CCCN[C@H]6C5)cc4oc3=O)nc2cn1 [Compound 719, 3-(6-methylimidazo[1,2-a]pyrazin-2-yl)-7-[(4aR,7aR)-octahydro-6H-pyrrolo[3,4-b]pyridin-6-yl]-2H-chromen-2-one] | ** (fold increase between >1.2 and ≤1.35) | < 0.1 µM | 282 to 291 °C |  |  |  |  |
| Cc1cn2cc(-c3cc4ccc(N5CCN(C)CC5)cc4oc3=O)nc2s1 [Compound 97, 3-(2-methylimidazo[2,1-b][1,3]thiazol-6-yl)-7-(4-methylpiperazin-1-yl)-2H-chromen-2-one] | *** (fold increase between >1.35 and ≤1.5) | 1 to 3 µM | > 300 °C | 3000 to 10000 nM |  |  |  |
| C[C@H]1CN(c2ccc3cc(-c4cc5ccccc5s4)c(=O)oc3c2)CCN1 [Compound 410, 3-(1-benzothiophen-2-yl)-7-[(3S)-3-methylpiperazin-1-yl]-2H-chromen-2-one] | * (maximum fold increase of ≤1.2) | < 0.1 µM | 260 to 262 °C |  |  |  |  |
